Data from PubChem BioAssay (NCI).
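Five concentrations, 48 hours, 96-well plates. Abbreviation: GI50, concentration required for 50% inhibition of growth. At the TGI there is no net growth.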

How the values were obtained:
Test in all cases: NCI tumour cell line growth inhibition, 48 h
LOX IMVI melanoma = tested on: LOX IMVI melanoma
HOP-62 NSCLC = tested on: HOP-62 NSCLC
SNB-78 CNS = tested on: SNB-78 CNS
UACC-257 melanoma = tested on: UACC-257 melanoma
SNB-75 CNS = tested on: SNB-75 CNS
U251 CNS = tested on: U251 CNS
HCC-2998 colon = tested on: HCC-2998 colon
M14 melanoma = tested on: M14 melanoma
ACHN renal = tested on: ACHN renal
DMS 114 small cell lung = tested on: DMS 114 small cell lung
SW-620 colon = tested on: SW-620 colon
KM20L2 colon = tested on: KM20L2 colon
HCT-15 colon = tested on: HCT-15 colon
HCT-116 colon = tested on: HCT-116 colon
COLO 205 colon = tested on: COLO 205 colon
TK-10 renal = tested on: TK-10 renal
SNB-19 CNS = tested on: SNB-19 CNS
MALME-3M melanoma = tested on: MALME-3M melanoma
SR leukemia = tested on: SR leukemia
EKVX NSCLC = tested on: EKVX NSCLC
XF 498 CNS = tested on: XF 498 CNS
SF-539 CNS = tested on: SF-539 CNS
SK-MEL-5 melanoma = tested on: SK-MEL-5 melanoma
RXF 393 renal = tested on: RXF 393 renal
786-0 renal = tested on: 786-0 renal
NCI-H23 lung = tested on: NCI-H23 lung
LXFL 529 NSCLC = tested on: LXFL 529 NSCLC
IGROV1 ovarian = tested on: IGROV1 ovarian
HT29 colon = tested on: HT29 colon
M19-MEL melanoma = tested on: M19-MEL melanoma
MOLT-4 leukemia = tested on: MOLT-4 leukemia
OVCAR-3 ovarian = tested on: OVCAR-3 ovarian
NCI-H460 lung = tested on: NCI-H460 lung
HOP-92 NSCLC = tested on: HOP-92 NSCLC
RXF-631 renal = tested on: RXF-631 renal
SK-MEL-28 melanoma = tested on: SK-MEL-28 melanoma
CCRF-CEM leukemia = tested on: CCRF-CEM leukemia
OVCAR-5 ovarian = tested on: OVCAR-5 ovarian
A549 NSCLC = tested on: A549 NSCLC
NCI-H226 lung = tested on: NCI-H226 lung
K-562 leukemia = tested on: K-562 leukemia
DMS 273 small cell lung = tested on: DMS 273 small cell lung
SN12C renal = tested on: SN12C renal
UACC-62 melanoma = tested on: UACC-62 melanoma
SF-268 CNS = tested on: SF-268 CNS
HL-60(TB) leukemia = tested on: HL-60(TB) leukemia
HOP-18 NSCLC = tested on: HOP-18 NSCLC
SF-295 CNS = tested on: SF-295 CNS
A498 renal = tested on: A498 renal
KM12 colon = tested on: KM12 colon
DLD-1 colon = tested on: DLD-1 colon
CAKI-1 renal = tested on: CAKI-1 renal
OVCAR-4 ovarian = tested on: OVCAR-4 ovarian
OVCAR-8 ovarian = tested on: OVCAR-8 ovarian
UO-31 renal = tested on: UO-31 renal
NCI/ADR-RES ovarian = tested on: NCI/ADR-RES ovarian
MDA-MB-435 = tested on: MDA-MB-435
SN12K1 renal = tested on: SN12K1 renal
BT-549 breast = tested on: BT-549 breast
MDA-MB-231 breast = tested on: MDA-MB-231 breast
SK-MEL-2 melanoma = tested on: SK-MEL-2 melanoma
P388/ADR leukemia = tested on: P388/ADR leukemia
DU-145 prostate = tested on: DU-145 prostate
PC-3 prostate = tested on: PC-3 prostate
SK-OV-3 ovarian = tested on: SK-OV-3 ovarian
P388 leukemia = tested on: P388 leukemia
T-47D breast = tested on: T-47D breast
RPMI-8226 leukemia = tested on: RPMI-8226 leukemia
HS 578T breast = tested on: HS 578T breast
MCF7 breast = tested on: MCF7 breast
NCI-H522 lung = tested on: NCI-H522 lung
MDA-N = tested on: MDA-N

SMILES: CC1=C(C(=O)NCc2ccccc2)C(c2ccccc2[N+](=O)[O-])C(C(=O)NCc2ccccc2)=C(C)N1
- TGI (LOX IMVI melanoma): 21.3 µM
- TGI (HOP-62 NSCLC): 35.1 µM
- TGI (SNB-78 CNS): 42.6 µM
- TGI (UACC-257 melanoma): 29.4 µM
- TGI (SNB-75 CNS): 26.6 µM
- TGI (U251 CNS): 22.8 µM
- TGI (HCC-2998 colon): 31.2 µM
- TGI (M14 melanoma): 23.9 µM
- TGI (ACHN renal): 27.4 µM
- TGI (DMS 114 small cell lung): 29.8 µM
- TGI (SW-620 colon): 28.1 µM
- TGI (KM20L2 colon): 30.3 µM
- TGI (HCT-15 colon): 22.4 µM
- TGI (HCT-116 colon): 19.7 µM
- TGI (COLO 205 colon): 33.8 µM
- TGI (TK-10 renal): 31.4 µM
- TGI (SNB-19 CNS): 27.5 µM
- TGI (MALME-3M melanoma): 27 µM
- TGI (SR leukemia): 35.8 µM
- TGI (EKVX NSCLC): 30.1 µM
- TGI (XF 498 CNS): 31.9 µM
- TGI (SF-539 CNS): 25.8 µM
- TGI (SK-MEL-5 melanoma): 25.9 µM
- TGI (RXF 393 renal): 23.4 µM
- TGI (786-0 renal): 25.4 µM
- TGI (NCI-H23 lung): 25.4 µM
- TGI (LXFL 529 NSCLC): 23.1 µM
- TGI (IGROV1 ovarian): 40.9 µM
- TGI (HT29 colon): 28 µM
- TGI (M19-MEL melanoma): 23.9 µM
- TGI (MOLT-4 leukemia): 50.5 µM
- TGI (OVCAR-3 ovarian): 19.2 µM
- TGI (NCI-H460 lung): 31.4 µM
- TGI (HOP-92 NSCLC): 36.6 µM
- TGI (RXF-631 renal): 29.2 µM
- TGI (SK-MEL-28 melanoma): 26 µM
- TGI (CCRF-CEM leukemia): 44.7 µM
- TGI (OVCAR-5 ovarian): 36.6 µM
- TGI (A549 NSCLC): 68.1 µM
- TGI (NCI-H226 lung): 30.4 µM
- TGI (K-562 leukemia): 24.8 µM
- TGI (DMS 273 small cell lung): 25.4 µM
- TGI (SN12C renal): 27.4 µM
- TGI (UACC-62 melanoma): 22.9 µM
- TGI (SF-268 CNS): 22.9 µM
- TGI (HL-60(TB) leukemia): 13.2 µM
- TGI (HOP-18 NSCLC): 35.1 µM
- TGI (SF-295 CNS): 25.4 µM
- TGI (A498 renal): 32.4 µM
- TGI (KM12 colon): 23.1 µM
- TGI (DLD-1 colon): 20.3 µM
- TGI (CAKI-1 renal): 50 µM
- TGI (OVCAR-4 ovarian): 22.9 µM
- TGI (OVCAR-8 ovarian): 43.3 µM
- TGI (UO-31 renal): 27 µM

SMILES: O=[N+]([O-])O.[Ga]
- TGI (NCI/ADR-RES ovarian): > 10000 µM
- TGI (LOX IMVI melanoma): > 8240 µM
- TGI (HOP-62 NSCLC): 1960 µM
- GI50 (SNB-78 CNS): > 4220 µM
- TGI (SNB-78 CNS): > 4980 µM
- TGI (UACC-257 melanoma): > 10000 µM
- GI50 (SNB-75 CNS): 1250 µM
- TGI (SNB-75 CNS): > 7110 µM
- TGI (MDA-MB-435): > 10000 µM
- TGI (U251 CNS): 4930 µM
- TGI (HCC-2998 colon): > 5620 µM
- GI50 (SN12K1 renal): 1210 µM
- TGI (SN12K1 renal): 6000 µM
- TGI (M14 melanoma): > 10000 µM
- TGI (ACHN renal): > 10000 µM
- TGI (SW-620 colon): > 10000 µM
- TGI (BT-549 breast): > 4640 µM
- GI50 (KM20L2 colon): 1270 µM
- TGI (KM20L2 colon): > 10000 µM
- TGI (HCT-15 colon): 5780 µM
- TGI (HCT-116 colon): > 10000 µM
- TGI (COLO 205 colon): > 9550 µM
- TGI (TK-10 renal): > 7990 µM
- TGI (SNB-19 CNS): > 10000 µM
- TGI (MALME-3M melanoma): 1320 µM
- TGI (MDA-MB-231 breast): > 10000 µM
- TGI (SR leukemia): > 10000 µM
- TGI (EKVX NSCLC): 5620 µM
- TGI (SF-539 CNS): > 10000 µM
- TGI (SK-MEL-5 melanoma): 1310 µM
- TGI (RXF 393 renal): > 9480 µM
- GI50 (SK-MEL-2 melanoma): 325 µM
- TGI (SK-MEL-2 melanoma): 3270 µM
- TGI (786-0 renal): > 10000 µM
- GI50 (NCI-H23 lung): 1260 µM
- TGI (NCI-H23 lung): > 10000 µM
- TGI (IGROV1 ovarian): > 7220 µM
- GI50 (P388/ADR leukemia): 712 µM
- TGI (P388/ADR leukemia): > 3030 µM
- TGI (HT29 colon): > 7200 µM
- TGI (MOLT-4 leukemia): 2130 µM
- TGI (OVCAR-3 ovarian): 6920 µM
- TGI (NCI-H460 lung): 8990 µM
- TGI (DU-145 prostate): > 10000 µM
- GI50 (HOP-92 NSCLC): 673 µM
- TGI (HOP-92 NSCLC): 3700 µM
- TGI (PC-3 prostate): > 10000 µM
- TGI (SK-OV-3 ovarian): 390 µM
- GI50 (P388 leukemia): 1680 µM
- TGI (P388 leukemia): > 10000 µM
- TGI (T-47D breast): > 9010 µM
- TGI (SK-MEL-28 melanoma): > 10000 µM
- TGI (CCRF-CEM leukemia): 3190 µM
- TGI (OVCAR-5 ovarian): 5070 µM
- TGI (A549 NSCLC): > 10000 µM
- TGI (NCI-H226 lung): 9510 µM
- TGI (K-562 leukemia): > 8480 µM
- GI50 (DMS 273 small cell lung): 470 µM
- TGI (DMS 273 small cell lung): 6900 µM
- TGI (SN12C renal): 6890 µM
- GI50 (UACC-62 melanoma): 892 µM
- TGI (UACC-62 melanoma): > 10000 µM
- GI50 (SF-268 CNS): 3000 µM
- TGI (SF-268 CNS): > 10000 µM
- TGI (HL-60(TB) leukemia): 1780 µM
- GI50 (HOP-18 NSCLC): 5210 µM
- TGI (HOP-18 NSCLC): > 9360 µM
- TGI (SF-295 CNS): 1240 µM
- TGI (RPMI-8226 leukemia): 2270 µM
- TGI (A498 renal): 2590 µM
- TGI (HS 578T breast): > 10000 µM
- TGI (MCF7 breast): 6200 µM
- TGI (KM12 colon): > 10000 µM
- GI50 (DLD-1 colon): 3500 µM
- TGI (DLD-1 colon): > 10000 µM
- TGI (CAKI-1 renal): > 9820 µM
- TGI (OVCAR-4 ovarian): 5040 µM
- TGI (NCI-H522 lung): 4490 µM
- TGI (OVCAR-8 ovarian): > 7940 µM
- TGI (UO-31 renal): > 7740 µM
- TGI (MDA-N): > 10000 µM
